Reference: patent US20240316038A1, “APOL1 INHIBITORS AND METHODS OF USE” (Maze Therapeutics, Inc., priority 2021, published 2024)

How the values were obtained:
APOL1 G2 [1] = molecular target: T1, APOL1 G2 (Homo sapiens, UniProt O14791, DEL388-389); assay: APOL1 calcium transport inhibition assay (GCaMP6f calcium influx, FLIPR) in HEK T-REx/GCaMP6f/APOL1 G2 K6.3 cells; type: cell-based; settings: inhibition of APOL1-mediated calcium influx; geometric mean of at least 2 assay runs, † = single assay run (technical duplicate)
T1 construct: expressed in transfected cells; host or cells: HEK293 T-REx clonal lines: HEK T-REx/GCaMP6f/APOL1 G2 K6.3 in A1, HEK293/T-REx APOL1 G2/clone #2 in A2
T1 sequence (O14791 with tags, fused parts or gaps DEL388-389): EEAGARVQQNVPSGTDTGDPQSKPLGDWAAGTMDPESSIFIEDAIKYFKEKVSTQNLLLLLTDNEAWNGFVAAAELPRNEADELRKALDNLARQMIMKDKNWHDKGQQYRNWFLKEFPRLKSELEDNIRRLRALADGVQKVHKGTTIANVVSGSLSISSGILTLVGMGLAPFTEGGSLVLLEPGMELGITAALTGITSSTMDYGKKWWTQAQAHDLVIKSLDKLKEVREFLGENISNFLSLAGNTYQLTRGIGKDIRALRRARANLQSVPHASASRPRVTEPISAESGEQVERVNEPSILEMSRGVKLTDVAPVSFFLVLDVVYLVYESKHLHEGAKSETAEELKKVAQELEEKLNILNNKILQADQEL
Outline: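 HEK293 cells stably expressing GCaMP6f, APOL1 G2 induced 6 h with doxycycline (20 ng/mL added), then washed into Ca2+-free Tyrode's buffer pH 7.4. Compounds (8-point dose response) preincubated 10 min at room temperature, then Ca2+ injected to 5 mM final and influx read on FLIPR. AC50 reported as geometric mean of runs.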

APOL1 G2 [2] = molecular target: T1, APOL1 G2; assay: Rescue of HEK293 cell death caused by overexpression of APOL1 (CellTiter-Glo luminescence), HEK293/T-REx APOL1 G2/clone #2; type: cell-based; settings: reversal of cell death caused by overexpression of APOL1; geometric mean of at least 2 assay runs, † = single assay run (technical duplicate)
Outline: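 HEK293/T-REx APOL1 G2 clone #2 cells, 5,000/well, induced with 6 ng/mL doxycycline and exposed to compound (8-point, 3-fold dilutions, 0.5% DMSO) for 17 h at 37 °C. Viability by CellTiter-Glo luminescence; EC50 for reversal of APOL1-induced death from a four-parameter logistic fit, geometric mean of ≥2 runs.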

Structure (SMILES)	AC50 (APOL1 G2 [1]) [nM]	EC50 (APOL1 G2 [2]) [nM]
C[C@H]1CN(CCc2cccc(Cl)c2)C[C@@H]1COc1ccc(S(=O)(=O)CCO)cc1 (single isomer, unassigned) [Compound 112, 2-(4-{[(3R,4R or 3S,4S)-1-[2-(3-chlorophenyl)ethyl]-4-methylpyrrolidin-3-yl]methoxy}benzene-sulfonyl)ethan-1-ol]	> 159	29.8
C[C@@H]1CN(CCc2cc(Cl)cc(C#N)c2)C[C@H]1COc1ccc(S(C)(=O)=O)cc1 [Compound 194, 3-chloro-5-{2-[(3S,4S)-3-[(4-methanesulfonylphenoxy)methyl]-4-methylpyrrolidin-1-yl]ethyl}benzonnitrile]	151	107
CN(c1ccc(OCC(C)(O)CNCCc2cccc(Cl)c2)cc1)S(C)(=O)=O (single isomer, unassigned) [Compound 104, (S) or (R)-N-(4-(3-((3-chlorophenethyl)a-mino)-2-hydroxy-2-methylpropoxy)phe-nyl)-N-methylmethanesulfon-amide]	< 382	1860
CN(c1ccc(OC[C@H]2CCN(CCc3cccc(Cl)c3)C2)cc1)S(C)(=O)=O [Compound 49, (S)-N-(4-((1-(3-chlorophenethyl)pyrrolidin-3-yl)methoxy)phenyl)-N-methylmethanesulfonamide]	847	957
CC(Cc1cccc(Cl)c1)NC[C@@H](O)COc1ccc(N(C)S(C)(=O)=O)cc1 (single isomer, unassigned) [Compound 89, N-(4-((R)-3-(((R) or (S)-1-(3-chlorophenyl)propan-2-yl)amino)-2-hydroxypropoxy)phe-nyl)-N-methylmethanesulfon-amide]	449	2020
CN=S(C)(=O)c1ccc(OC[C@H]2C[C@@H](C)N(CCc3cccc(C#N)c3)C2)cc1 (single isomer, unassigned) [Compound 158, 3-{2-[(2R,4S)-2-methyl-4-({4-[(R or S)methyl(methyli-mino)oxo-λ^6-sulfanyl]phenoxy}methyl)pyrrolidin-1-yl]ethyl}benzonitrile]	352	39
C[C@@H]1CN(CCc2cc(Cl)cc(C#N)c2)C[C@H]1COc1ccc(S(=O)(=O)C(C)(C)CO)cc1 [Compound 166, 3-chloro-5-{2-[(3S,4S)-3-{[4-(1-hydroxy-2-methylpropane-2-sulfonyl)phenoxy]methyl}-4-methylpyrrolidin-1-yl]ethyl}benzonitrile]	256	17.9
CC1CC(COc2ccc(S(C)(=O)=O)cc2)CN1CCc1cccc(C#N)c1 (single isomer, unassigned) [Compound 140, 3-{2-[(2S,4R or 2R,4S or 2R,4R or 2S,4S)-4-[(4-methanesulfon-ylphenoxy)meth-yl]-2-methyl-pyrrolidin-1-yl]-ethyl}benzo-nitrile]	107	45.9
CS(=O)(=O)c1ccc(OC[C@@H]2CN(CCc3cc(Cl)cc(Cl)c3)CCN2)cc1 [Compound 190, (3S)-1-[2-(3,5-dichlorophenyl)ethyl]-3-[(4-methanesulfonylphenoxy)methyl]piperazine]	170	291
CN=S(C)(=O)c1ccc(OC[C@@H]2CN(CCc3cccc(C#N)c3)C[C@H]2C)cc1 (stereo partly drawn) [Compound 169, 3-{2-[(3S,4S)-3-methyl-4-({4-[methyl(methyli-mino)oxo-λ^6-sulfanyl]phenoxy}methyl)pyrrolidin-1-yl]ethyl}benzonitrile]	79.7	182
C[C@@H]1CN(CC(O)c2cc(Cl)cc(C#N)c2)C[C@H]1COc1ccc(S(C)(=O)=O)cc1 (stereo partly shown) [Compound 120]	461	195
C[C@@H]1CN(CC(O)c2cc(C#N)cc(C#N)c2)C[C@H]1COc1ccc(S(C)(=O)=O)cc1 (single isomer, unassigned) [Compound 131, 5-[(1S or 1R)-1-hydroxy-2-[(35,4S)-3-[(4-methanesulfonylphenoxy)methyl]-4-methylpyrrolidin-1-yl]ethyl]benzene-1,3-dicarbonitrile]	394	460

Continued, in another order:

AC50 (APOL1 G2 [1]) [nM]	Structure (SMILES)	EC50 (APOL1 G2 [2]) [nM]
374	C[C@@H]1C[C@H](COc2ccc(S(C)(=O)=O)cc2)CN1CCc1cccc(Cl)c1 [Compound 153, (2R,4S)-1-[2-(3-chlorophenyl)-ethyl]-4-[(4-methanesulfon-ylphenoxy)meth-yl]-2-methyl-pyrrolidine]	27.8
2190	CS(=O)(=O)c1ccc(OC[C@H](O)CNC(Cc2cccc(Cl)c2)C2CC2)cc1 (stereo partly drawn) [Compound 102, (2R)-1-((2-(3-chlorophenyl)-1-cyclopropylethyl)a-mino)-3-(4-(methylsulfonyl)phe-noxy)propan-2-ol]	> 21800
8480	CN(c1ccc(OC[C@H](O)CN2CCOC(c3cccc(Cl)c3)C2)cc1)S(C)(=O)=O (single isomer, unassigned) [Compound 85, N-(4-((R)-3-((S) or (R)-2-(3-chlorophenyl)morpho-lino)-2-hydroxypropoxy)phe-nyl)-N-methylmethanesulfon-amide]	> 18000
13900	CN(c1ccc(OC[C@@H](O)CN2CCOC(c3cccc(Cl)c3)C2)cc1)S(C)(=O)=O (stereo partly drawn) [Compound 80, N-(4-((2S)-3-(2-(3-chlorophenyl)morpho-lino)-2-hydroxypropoxy)phe-nyl)-N-methylmethanesulfon-amide]	13000
> 25000	CN(c1ccc(OC[C@H](O)CN2CCOC(c3cccc(Cl)c3)C2)cc1)S(C)(=O)=O (stereo partly drawn) [Compound 83, N-(4-((2R)-3-(2-(3-chlorophenyl)morpho-lino)-2-hydroxypropoxy)phe-nyl)-N-methylmethanesulfon-amide]	> 30000
580	CC1CC(COc2ccc(S(C)(=O)=O)cc2)CN1CCc1cccc(Cl)c1 (single isomer, unassigned) [Compound 56, (2R,4R) or (2S,4R) or (2S,4S) or (2R,4S)-1-(3-chlorophenethyl)-2-methyl-4-((4-(methylsulfonyl)phenoxy)methyl)pyrrolidine]	1680
856	CC1CC(COc2ccc(S(C)(=O)=O)cc2)CN1CCc1cccc(Cl)c1 (single isomer, unassigned) [Compound 53, rac-trans or cis-1-(3-chlorophenethyl)-2-methyl-4-((4-(methylsulfonyl)phenoxy)methyl)pyrrolidine]	1120
637	CS(=O)(=O)c1ccc(OC[C@@H](O)CN2CCCCC2Cc2cccc(Cl)c2)cc1 (single isomer, unassigned) [Compound 63, (2S)-1-((S) or (R)-2-(3-chlorobenzyl)piperidin-1-yl)-3-(4-(methylsulfonyl)phenoxy)propan-2-ol]	3960
396	CS(=O)(=O)c1ccc(OC[C@@H](O)CN2CCCCC2Cc2cccc(Cl)c2)cc1 (stereo partly drawn) [Compound 62, (2S)-1-(2-(3-chlorobenzyl)piperidin-1-yl)-3-(4-(methylsulfonyl)phenoxy)propan-2-ol]	642
943	CN(c1ccc(OC[C@H](O)CN2CCC(c3cccc(Cl)c3)C2(C)C)cc1)S(C)(=O)=O (stereo partly drawn) [Compound 71, N-(4-((2R)-3-(3-(3-chlorophenyl)-2,2-dimethylpyrrolidin-1-yl)-2-hydroxypropoxy)phe-nyl)-N-methylmethanesulfon-amide]	1960
38.3	C[C@@H]1CN(CCc2cccc(Cl)c2)C[C@H]1COc1ccc(S(C)(=O)=O)cc1 [Compound 133, (35,4S)-1-[2-(3-chlorophenyl)ethyl]-3-[(4-methanesulfonylphenoxy)methyl]-4-methylpyrrolidine]	135
> 25000	CN(c1ccc(OC[C@@H](O)CN2CCOC(c3cccc(Cl)c3)C2)cc1)S(C)(=O)=O (single isomer, unassigned) [Compound 81, N-(4-((S)-3-((S) or (R)-2-(3-chlorophenyl)morpho-lino)-2-hydroxypropoxy)phe-nyl)-N-methylmethanesulfon-amide]	> 30000
> 25000	CN(c1ccc(OC[C@H](O)CN2CCOC(c3cccc(Cl)c3)C2)cc1)S(C)(=O)=O (single isomer, unassigned) [Compound 84, N-(4-((R)-3-((R) or (S)-2-(3-chlorophenyl)morpho-lino)-2-hydroxypropoxy)phe-nyl)-N-methylmethanesulfon-amide]	> 30000
205	CS(=O)(=O)c1ccc(OCC2CCCCN(CCc3cccc(Cl)c3)C2)cc1 (single isomer, unassigned) [Compound 3, (S) or (R)-1-(3-chlorophenethyl)-3-((4-(methylsulfonyl)phenoxy)methyl)azepane]	295
